These results are taken from patent US20130195926A1, “MODULATION OF NITRIC OXIDE SIGNALING TO NORMALIZE TUMOR VASCULATURE” (The General Hospital Corporation, priority 2007, published 2013).

Data set [1] concerns nNOS. Briefly: Western blot of nNOS knockdown in cultured nNOS shRNA-transfected U87 cells. It is filed as cell-based, human. Here is the method: U87MG (American Type Culture Collection HTB-14) and GL261 (generous gift from Dr. G. Yancey Gillespie at University of Alabama) tumor cells were cultured in Dulbecco's Modified Eagle's Medium with 10% fetal bovine serum at 37° C. in a humidified 5% CO2 incubator. The following short-hairpin RNAs (shRNAs) for nNOS were designed using a commercial service program for small interfering RNA (siRNA) target finder (http://www.ambion.com/techlib/misc/siRNA_finder.html): nNOS-shRNA58, CAAAGAGATCGACACCATC (sense), […] (antisense); nNOSshRNA97, CACGCATGTCTGGAAAGGC (sense), […](antisense); nNOS-shRNA150, GGTCTATCCAATGTCCACA (sense), […] (antisense). The DNA oligonucleotides consist of a 19-nucleotide sense siRNA sequence linked to its reverse complementary antisense siRNA sequence by a short spacer (TTCAAGAGA).
Each DNA oligonucleotide was prepared with nucleotide overhangs with BamHI and HindIII restriction sites added to the 5′ and 3′ end of the DNA oligonucleotides and subcloned into the pSilencer 3.1 H-1-hygro (Ambion) that allows transcription of the shRNA. These expression vectors were stably transfected into U87MG cells using LipofectAMINE 2000 (Invitrogen) following the manufacturer's instruction.
The stably transfected cells were selected with 80 μg/ml of hygromycin B. The expression of nNOS protein in U87 tumor cells and tissues was determined by'Western blot analysis. […]
Equal amounts of 60 micrograms of protein per sample were separated on 7.5% SDS polyacrylamide gels, transferred onto polyvinylidene fluoride membrane (Millipore), incubated with primary antibodies followed by secondary antibodies (the same antibodies used in immunohistochemistry studies. See Immunohistochemistry methods below), and detected using enhanced chemiluminescence (GE Healthcare) by exposure on autoradiography films (Kodak) (Xu, L., et al. 2005 Cancer Res. 65, 5711-5719; Canneliet, P., et al. 1998 Nature 394, 485-490; Xu, L., et al. 2002 Journal of Biological Chemistry 277, 11368-11374 (2002); and Xu, L., et al. 2004 Clinical Cancer Research 10, 701-707). […]
On the technique in general: In western blotting, separated proteins are transferred to a membrane and probed.

The test system of data set [2] is nNOS. Briefly: Western blot of nNOS knockdown in U87 tumors grown in cranial windows. Particulars: U87 tumors in cranial windows in Rag-1-/- mice. Type of data set: in vivo. Here is the method:
The stably transfected cells were selected with 80 μg/ml of hygromycin B. The expression of nNOS protein in U87 tumor cells and tissues was determined by'Western blot analysis. Cultured U87MG cells washed with PBS and U87MG tumors homogenized by a tissue grinder were solubilized in 40 mM Tris-HCl, pH 6.8, 2% SDS, 10% glycerol, 1% β-mercaptoethanol, 0.01% bromophenol blue with one Complete Mini Protease Inhibitor Cocktail tablet (Roche Diagnostics) per 50 ml buffer.
Equal amounts of 60 micrograms of protein per sample were separated on 7.5% SDS polyacrylamide gels, transferred onto polyvinylidene fluoride membrane (Millipore), incubated with primary antibodies followed by secondary antibodies (the same antibodies used in immunohistochemistry studies. See Immunohistochemistry methods below), and detected using enhanced chemiluminescence (GE Healthcare) by exposure on autoradiography films (Kodak) (Xu, L., et al. 2005 Cancer Res. 65, 5711-5719; Canneliet, P., et al. 1998 Nature 394, 485-490; Xu, L., et al. 2002 Journal of Biological Chemistry 277, 11368-11374 (2002); and Xu, L., et al. 2004 Clinical Cancer Research 10, 701-707).
Recombination activating gene 1 (Rag-1^−/−) mice backcrossed to C57BL/6 background or severe combined immunodeficiency (SCID) mice, bred and maintained in an gnotobiotic animal facility, were used. To obtain source tumor tissue, U87 tumor cells in culture (1×10^6 cells) were injected subcutaneously into Rag-1^−/− or SCID mice matching the recipient mice. When the tumor reached about 8 mm in diameter, it was excised after euthanasia and a small piece (about 1 mm^3) of viable tumor tissue was implanted into a cranial window or subcutaneously into the calf area of the right hindlegs of the mice as previously described (Kashiwagi, S., et al. 2005 J. Clin. Invest. 115, 1816-1827; Kozin, S. V., et al. 2001 Cancer Research 61, 39-44). […]
U87 with nNOS shRNA (shRNA58, shRNA97, and shRNA150) were grown in cranial windows in Rag-1^−/− mice. Expression of nNOS in these tumors was determined by Western blot analysis. […]

As for “shRNA97: short-hairpin RNA for nNOS, CACGCATGTCTGGAAAGGC (sense), GCCTTTCCAGACATGCGTGTT (antisense), in pSilencer 3.1 H-1-hygro”, in the data set with nNOS [1], the “Knockdown efficiency of nNOS in vitro” value is recorded as 98%. Further, the “Knockdown efficiency of nNOS in vivo” value in the data set with nNOS [2] turned out to be 67%.
